Results on 17 compounds are retold here after US8563714B2, “Bridged spiro [2.4] heptane derivatives as ALX receptor and/or FPRL2 agonists” (Actelion Pharmaceuticals Ltd., priority 2009, dated 2013).

Some results are limits rather than exact numbers.

Experiment [1] has as its target T1, human FPRL2 (Homo sapiens, UniProt P25089).
T1 construct: expressed in transfected cells; host or cells: HEK293 (HEK293-hFPRL2-Gα16)
T1 sequence (P25089 1-353): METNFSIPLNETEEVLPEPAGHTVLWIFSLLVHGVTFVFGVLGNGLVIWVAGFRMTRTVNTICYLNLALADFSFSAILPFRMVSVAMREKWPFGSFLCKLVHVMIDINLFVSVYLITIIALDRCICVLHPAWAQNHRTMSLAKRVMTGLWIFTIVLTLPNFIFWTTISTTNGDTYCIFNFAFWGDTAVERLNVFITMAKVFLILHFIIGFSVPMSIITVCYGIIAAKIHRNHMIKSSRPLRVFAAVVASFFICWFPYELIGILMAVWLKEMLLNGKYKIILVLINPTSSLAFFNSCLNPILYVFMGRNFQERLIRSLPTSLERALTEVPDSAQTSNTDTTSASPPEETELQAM
As to the kind of experiment: Intracellular calcium measurements (FLIPR), agonistic activity in HEK293-hFPRL2-Gα16 cells. Format: cell-based. Conditions: Fluo-4 calcium FLIPR, normalized to GLY14-Humanin 100 nM. As for the experimental part:
(§1) The ALX receptor and FPRL2 agonistic activities of the compounds of formula (I) are determined in accordance with the following experimental method.
(§2) Intracellular Calcium Measurements:
Cells expressing recombinant human FPRL2 and the G-protein Gα16 (HEK293-hFPRL2-Gα16) were grown to 80% confluency in Growing Medium (GM). […] Stock solutions of test compounds were made up at a concentration of 10 mM in DMSO, and serially diluted in AB to concentrations required for activation dose response curves. Gly14-Humanin (Humanin peptide with replacement of Serine by Glycine at position 14, Phoenix Peptides) was used as a reference agonist. FLIPR384 or FLIPR Tetra instruments (Molecular Devices) were operated according to the manufacturer's standard instructions, adding 4 μl of test compound dissolved at 10 mM in DMSO and diluted prior to the experiment in assay buffer to obtain the desired final concentration. Changes in fluorescence were monitored before and after the addition of test compounds at lex=488 nm and lem=540 nm. Emission peak values above base level after compounds addition were exported after base line subtraction. Values were normalized to high-level control (GLY14-Humanin compound, 100 nM final concentration) after subtraction of the base line value (AB addition).
(In general: Calcium assays in cells follow changes in intracellular calcium, usually with a dye or a luminescent sensor.)

The target in experiment [2] is T2, human ALX receptor (Homo sapiens, UniProt P25090).
T2 construct: expressed in transfected cells; host or cells: HEK293 (HEK293-hALXR-Gα16)
T2 sequence (P25090 1-351): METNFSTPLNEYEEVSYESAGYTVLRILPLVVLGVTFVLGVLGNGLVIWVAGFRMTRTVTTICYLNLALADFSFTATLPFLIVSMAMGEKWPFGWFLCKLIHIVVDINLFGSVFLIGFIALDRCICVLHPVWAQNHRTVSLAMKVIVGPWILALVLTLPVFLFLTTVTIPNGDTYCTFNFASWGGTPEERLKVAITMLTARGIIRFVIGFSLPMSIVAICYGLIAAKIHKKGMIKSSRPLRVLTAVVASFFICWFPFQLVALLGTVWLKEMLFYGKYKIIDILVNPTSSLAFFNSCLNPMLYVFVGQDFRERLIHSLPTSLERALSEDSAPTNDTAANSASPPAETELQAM
The experiment is described as follows: Intracellular calcium measurements (FLIPR), agonistic activity in HEK293-hALXR-Gα16 cells. Conditions: Fluo-4 calcium FLIPR, normalized to WKYMVm 10 nM. Format: cell-based. The procedure: as §1, §2
Cells expressing recombinant human ALX receptor and the G-protein Gα16 (HEK293-hALXR-Gα16) were grown to 80% confluency in Growing Medium (GM). Cells were detached from culture dishes with a cell dissociation buffer (Invitrogen, 13151-014), and collected by centrifugation at 1,000 rpm at rt for 5 min in Assay Buffer (AB) (equal parts of Hank's BSS (Gibco, 14065-049) and DMEM without Phenol Red (Gibco, 11880-028)). After 60 min incubation at 37° C. under 5% CO2 in AB supplemented with 1 μM Fluo-4 (AM) (Invitrogen, F14202), and 20 mM HEPES (Gibco, 15630-056), the cells were washed and resuspended in AB. They were then seeded onto 384-well FLIPR assay plates (Greiner, 781091) at 50′000 cells in 70 μl per well and sedimented by centrifugation at 1,000 rpm for 1 min. Stock solutions of test compounds were made up at a concentration of 10 mM in DMSO, and serially diluted in AB to concentrations required for activation dose response curves. WKYMVm (Phoenix Peptides) was used as a reference agonist. FLIPR384 or FLIPR Tetra instruments (Molecular Devices) were operated according to the manufacturer's standard instructions, adding 4 μl of test compound dissolved at 10 mM in DMSO and diluted prior to the experiment in assay buffer to obtain the desired final concentration. Changes in fluorescence were monitored before and after the addition of test compounds at lex=488 nm and lem=540 nm. Emission peak values above base level after compounds addition were exported after base line subtraction. Values were normalized to high-level control (WKYMVm compound, 10 nM final concentration) after subtraction of the base line value (AB addition).

What is called EC50 is the concentration needed to bring the measured effect to its halfway point. Consider `O=C(Nc1ccc(Br)cc1)C1C(C(=O)NC2CCNC2)C2C=CC1C21CC1` (mixture of isomers) [Example 9, (5R*)—N^5-(4-Bromophenyl)-(6R*)—N^6-(pyrrolidin-3-yl)-(4S*,7R*)-[4,7-ethenylene-spiro[2.4]heptane]-5,6-dicarboxamide], for which the EC50 in experiment [1] is 1510 nM; in experiment [2], 0.94 nM.

As to `CC(C)(C)OC(=O)N1CCC(NC(=O)C2C(C(=O)Nc3ccc(Br)cc3)C3C=CC2C32CC2)C1` (mixture of isomers) [Example 14, (5R*)—N^5-(4-Bromophenyl)-(6R*)—N^6-(N-tert-butoxycarbonyl-pyrrolidin-3-yl)-(4S*,7R*)-[4,7-ethenylene-spiro[2.4]heptane]-5,6-dicarboxamide], the EC50 was determined as 1690 nM in experiment [1] and 1.2 nM in experiment [2].

For `O=C(NCC1CCCN1)C1C(C(=O)Nc2ccc(Br)cc2)C2C=CC1C21CC1` (mixture of isomers) [Example 18, (5R*)—N^5-(4-Bromophenyl)-(6R*)—N^6-(2-pyrrolidinyl-methyl)-(4S*,7R*)-[4,7-ethenylene-spiro[2.4]heptane]-5,6-dicarboxamide], the EC50 in experiment [1] was 551 nM; in experiment [2] it was 2 nM.

On to `O=C(NCC1CCCO1)C1C(C(=O)Nc2ccc(Br)cc2)C2C=CC1C21CC1` (mixture of isomers) [Example 22, (5R*)—N^5-(4-Bromophenyl)-(6R*)—N^6-(2-tetrahydrofuranyl-methyl)-(4S*,7R*)-[4,7-ethenylene-spiro[2.4]heptane]-5,6-dicarboxamide], for which the half-maximal effective concentration (EC50) is 4640 nM in experiment [1] and 3.2 nM in experiment [2].

`CCN(CC)CCCC(C)NC(=O)C1C(C(=O)Nc2ccc(Br)cc2)C2C=CC1C21CC1` (mixture of isomers) [Example 25, (5R*)—N^5-(4-Bromophenyl)-(6R*)—N^6-(5-(N,N-diethyl-amino)-pent-2-yl)-(4S*,7R*)-[4,7-ethenylene-spiro[2.4]heptane]-5,6-dicarboxamide]: the EC50 in experiment [1] is 365 nM; in experiment [2], 3.9 nM.

Regarding `O=C(Nc1ccc(Br)cc1)C1C(C(=O)NC2CCCNC2)C2C=CC1C21CC1` (mixture of isomers) [Example 26, (5R*)—N^5-(4-Bromophenyl)-(6R*)—N^6-(piperidin-3-yl)-(4S*,7R*)-[4,7-ethenylene-spiro[2.4]heptane]-5,6-dicarboxamide], the EC50 in experiment [1] stood at 744 nM; in experiment [2] it was 4.2 nM.

As for `CC(CO)NC(=O)C1C(C(=O)Nc2ccc(Br)cc2)C2C=CC1C21CC1` (mixture of isomers) [Example 28, (5R*)—N^5-(4-Bromophenyl)-(6R*)—N^6-(1-hydroxy-prop-2-yl)-(4S*,7R*)-[4,7-ethenylene-spiro[2.4]heptane]-5,6-dicarboxamide], the concentration for a half-maximal effect (EC50) in experiment [1] was above 25000 nM; in experiment [2] it was 4.5 nM.

For `CN1CCCC1CCNC(=O)C1C(C(=O)Nc2ccc(Br)cc2)C2C=CC1C21CC1` (mixture of isomers) [Example 33, (5R*)—N^5-(4-Bromophenyl)-(6R*)—N^6-(2-(1-methyl-pyrrolidin-2-yl)-ethyl)-(4S*,7R*)-[4,7-ethenylene-spiro[2.4]heptane]-5,6-dicarboxamide], the values for the EC50 in experiment [1] and in experiment [2] were 4100 nM and 5.8 nM, respectively.

For `O=C(NCC1COCCO1)C1C(C(=O)Nc2ccc(Br)cc2)C2C=CC1C21CC1` (mixture of isomers) [Example 41, (5R*)—N^5-(4-Bromophenyl)-(6R*)—N^6-([1,4]-dioxan-2-yl-methyl)-(4S*,7R*)-[4,7-ethenylene-spiro[2.4]heptane]-5,6-dicarboxamide], the 50% effective concentration (EC50) came out at 8510 nM in experiment [1] and 9.5 nM in experiment [2].

On to `CCN1CCCC1CNC(=O)C1C(C(=O)Nc2ccc(Br)cc2)C2C=CC1C21CC1` (mixture of isomers) [Example 54, (5R*)—N^5-(4-Bromophenyl)-(6R*)—N^6-[(1-ethyl-pyrrolidin-2-yl)-methyl]-(4S*,7R*)-[4,7-ethenylene-spiro[2.4]heptane]-5,6-dicarboxamide], for which the results for the half-maximal effective concentration (EC50) in experiment [1] and in experiment [2] were 2590 nM and 16 nM, respectively.

For `CC(C)(C)OC(=O)N1CCCC(NC(=O)C2C(C(=O)Nc3ccc(Br)cc3)C3C=CC2C32CC2)C1` (mixture of isomers) [Example 56, (5R*)—N^5-(4-Bromophenyl)-(6R*)—N^6-(N-tert-butoxycarbonyl-piperidin-3-yl)-(4S*,7R*)-[4,7-ethenylene-spiro[2.4]heptane]-5,6-dicarboxamide], the 50% effective concentration (EC50) in experiment [1] came to 1750 nM; in experiment [2], 18 nM.

On to `CC(C)CC(CO)NC(=O)C1C(C(=O)Nc2ccc(Br)cc2)C2C=CC1C21CC1` (mixture of isomers) [Example 59, (5R*)—N^5-(4-Bromophenyl)-(6R*)—N^6-[(2S)-1-hydroxy-4-methyl-pent-2-yl]-(4S*,7R*)-[4,7-ethenylene-spiro[2.4]heptane]-5,6-dicarboxamide], for which the EC50 in experiment [1] was determined as 8280 nM; in experiment [2], 21 nM.

On to `CC(NC(=O)C1C(C(=O)Nc2ccc(Br)cc2)C2C=CC1C21CC1)C(N)=O` (mixture of isomers) [Example 65, (5R*)—N^5-(4-Bromophenyl)-(6R*)—N^6-[(1S)-1-carbamoyl-ethyl]-(4S*,7R*)-[4,7-ethenylene-spiro[2.4]heptane]-5,6-dicarboxamide], for which the EC50 in experiment [1] is above 25000 nM; in experiment [2], 26 nM.

As to `O=C(NCC(c1ccccc1)N1CCOCC1)C1C(C(=O)Nc2ccc(Br)cc2)C2C=CC1C21CC1` (mixture of isomers) [Example 77, (5R*)—N^5-(4-Bromophenyl)-(6R*)—N^6-(2-phenyl-2-morpholino-ethyl)-(4S*,7R*)-[4,7-ethenylene-spiro[2.4]heptane]-5,6-dicarboxamide], the EC50 in experiment [1] came out at 2280 nM; in experiment [2] it was 80 nM.

Consider `CC(C)(C)OC(=O)N1CCCC1CNC(=O)C1C(C(=O)Nc2ccc(Br)cc2)C2C=CC1C21CC1` (mixture of isomers) [Example 79, (5R*)—N^5-(4-Bromophenyl)-(6R*)—N^6—(N-tert-butoxycarbonyl-pyrrolidin-2-yl-methyl)-(4S*,7R*)-[4,7-ethenylene-spiro[2.4]heptane]-5,6-dicarboxamide], for which the EC50 in experiment [1] was 1300 nM; in experiment [2], 96 nM.

As for `NC(=O)C1CCCCC1NC(=O)C1C(C(=O)Nc2ccc(Br)cc2)C2C=CC1C21CC1` (mixture of isomers) [Example 81, (5R*)—N^5-(4-Bromophenyl)-(6R*)—N^6-(2-carbamoyl-cyclohexyl)-(4S*,7R*)-[4,7-ethenylene-spiro[2.4]heptane]-5,6-dicarboxamide], the EC50 in experiment [1] is 8730 nM; in experiment [2] it was 100 nM.

As to `CC(NC(=O)C1C(C(=O)Nc2ccc(Br)cc2)C2C=CC1C21CC1)C(=O)N1CCCCC1` (mixture of isomers) [Example 82, (5R*)—N^5-(4-Bromophenyl)-(6R*)—N^6-(1-piperidin-1-yl-propan-1-on-2-yl)-(4S*,7R*)-[4,7-ethenylene-spiro[2.4]heptane]-5,6-dicarboxamide], the EC50 in experiment [1] turned out to be 6590 nM; in experiment [2], 118 nM.
